Reference: article PMC8718112, “Functional independence of endogenous μ- and δ-opioid receptors co-expressed in cholinergic interneurons” (eLife, 2021)

Biological target: T1, δ-opioid receptor (DOR) (Mus musculus, UniProt P32300)
T1 construct: gene Oprd1; endogenous receptor on cholinergic interneurons in mouse brain slices
Experiment: cell-attached recording of firing inhibition reversed by SDM25N; internalization of labeled receptors
Assay type: cell-based

T1 sequence (P32300 whole entry): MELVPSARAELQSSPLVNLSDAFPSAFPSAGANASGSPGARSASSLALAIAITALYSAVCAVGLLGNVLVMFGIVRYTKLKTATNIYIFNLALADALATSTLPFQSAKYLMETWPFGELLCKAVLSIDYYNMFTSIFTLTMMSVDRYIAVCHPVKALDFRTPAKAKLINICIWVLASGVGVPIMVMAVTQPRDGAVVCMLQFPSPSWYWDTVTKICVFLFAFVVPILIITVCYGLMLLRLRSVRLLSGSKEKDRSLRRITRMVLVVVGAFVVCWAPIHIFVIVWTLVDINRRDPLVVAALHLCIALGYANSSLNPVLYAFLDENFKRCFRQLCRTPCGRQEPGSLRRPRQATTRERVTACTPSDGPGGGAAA

In the case of `CC(C)[C@H](NC(=O)[C@H](CCC(=O)O)NC(=O)[C@H](Cc1ccccc1)NC(=O)[C@@H](C)NC(=O)[C@@H](N)Cc1ccc(O)cc1)C(=O)N[C@H](C(=O)NCC(N)=O)C(C)C` [deltorphin II], the inhibition at 1 µM is reported as 96.6 ± 2.7%.
